Patent US8557875B2, “Gene transfer agent composition containing polyamidoamine dendron” (Public University Corporation Osaka Prefecture University, priority 2009, dated 2013)

Key:
HeLa-S3 = experiment: Gene transfer (GFP expression, luciferase activity) versus commercial agents (Example 5); type: cell-based; settings: HeLa-S3 adherent cells; compared with Lipofectamine LTX and FuGENE HD
Method: pEGFP-C1 expressing a green fluorescent protein was used as a gene transfer plasmid; and adherent cells COS-7 and Hela-S3, and non-adherent cells K562, which were established cell lines, were used as target cells. Lipoplexes were individually prepared using DL-U2. Then, gene transfer was performed.
(HeLa—S3 cells: 3×10^4 cells/well·DMEM+10% FBS (Pe/St) 500 μl)
(i) A 20 mM Tris-HCl (pH 7.4) buffer was dispensed into three tubes at 35.5 μl (for NP ratio=6) for each of two tubes, and 23 μl (for NP ratio=8) for the remaining tube.
(ii) 1.0 μg of plasmid DNA (pCAG-GFP) was added to each of the three tubes prepared in step (i) at 2 μl (1.0 μg), and the contents were stirred.
(iii) A DL-U2 liposome solution was added to the three tubes prepared in step (ii) at 37.5 μl (N/P ratio=6) for each of two tubes, and 50 μl (N/P ratio=8) for the remaining tube.
(iv) 25 μl of an Opti-MEM (registered trademark) I Reduced-Serum Medium was further added, and the whole was thoroughly mixed and allowed to stand at room temperature for 5 minutes.
100 μl of the DL-plasmid DNA complex solution (N/P ratio=6) was added and mixed with the HeLa—S3 cells. […]
(vii) 48 hours later, luciferase activity was measured according to the protocol of the luciferase assay system (Promega, E1501) (relative values based on the activity of LTX defined as 1 were graphed).

NHDF-ad cells = experiment: Gene transfer (GFP expression, luciferase activity) versus commercial agents (Example 6); type: cell-based, human; settings: single transfection, 48 hours
Method: pEGFP-C1 expressing a green fluorescent protein was used as a gene transfer plasmid; and NHDF-ad cells, which were normal […] cells derived from adult humans and also used for the production of iPS cells, were used as target cells. Lipoplexes were individually prepared using DL-U2. Then, gene transfer was performed.
(NHDF-ad cells: 2.5×10^4 cells/well·DMEM+10% FBS (Pe/St) 500 μl)
(i) A 20 mM Tris-HCl (pH 7.4) buffer was dispensed into two tubes at, individually, 56.3 μl (for NP ratio=3) and 37.5 μl (for NP ratio=6).
(ii) 1.0 μg of plasmid DNA (pCAG-GFP) was added to each of the two tubes prepared in step (i) at 2 μl (1.0 μg), and the contents were stirred. […]
(vii) 48 hours later, luciferase activity was measured according to the protocol of the luciferase assay system (Promega, E1501).
Lipofectamine LTX: Gene transfer was performed according to the protocol, and luciferase activity was measured according to the protocol of the luciferase assay system (Promega, E1501).
FuGENE HD: Gene transfer was performed according to the protocol, and luciferase activity was measured according to the protocol of the luciferase assay system (Promega, E1501).
FuGENE6: Gene transfer was performed according to the protocol, and luciferase activity was measured according to the protocol of the luciferase assay system (Promega, E1501).

gene transfer activity (HeLa-S3): excellent gene transfer activity
Compound: CCCCCCCC/C=C\CCCCCCCCN(CCCCCCCC/C=C\CCCCCCCC)CCC(=O)NCCN(CCC(=O)NCCN)CCC(=O)NCCN (racemic) [DL-G1-U2]
gene transfer (GFP gene) efficiency (NHDF-ad cells): allowed the gene to be transferred into the cells at a remarkably high frequency
